In one experiment the test system is PC3 cells. Briefly: Immunoblotting of apoptotic markers (cleaved caspase-3, PARP-1) in PC3. The class given is cell-based, human. The conditions noted are these: 10 μM, FIG. 11B. On the procedure: FIG. 11. Compound I-1 induces cell cycle arrest and apoptosis in PC3 cells. Prostate cancer cells were left untreated (−) or treated with compound I-1 (10 μM) or with vehicle (DMSO) for the time indicated in the figure. (A) For flow cytometric analysis of cell cycle parameters, cells were fixed, and stained with propidium iodide. Each histogram indicates the percent of cells in G1, S, and G2/M phases of the cell cycle. Data were gated to exclude apoptotic cells for these calculations. (B) After treatment, cells were lysed and total lysates were analyzed for cellular apoptotic markers by immunoblotting using anti-PARP-1 or anti-cleaved Caspase-3 antibodies. Anti-GAPDH-1 antibody was used as loading control. (C) Some 48 h-treated PC3 cells were harvest by trypsinization, washed with PBS, and total DNA was extracted then analyzed on a 1.8% agarose gel. M indicates DNA size marker (base pairs).
Cell Culture and Treatment. All cells were obtained from ATCC and were grown in a humidified incubator at 37° C. with 5% CO2. […] All protein concentrations were determined using the bicinchoninic acid (BCA) protein assay (Pierce, Rockford, Ill.).
Immunoblotting. […] Antibody-reactive proteins were detected using a chemiluminescence substrate (SuperSignal; Pierce, Rockford, Ill.) according to the manufacturer's instructions. […]
A general note: In western blotting, separated proteins are transferred to a membrane and probed.

Another experiment has as its system RWPE-1 cells. Description: MTT assay (cytotoxicity) in RWPE-1. The class given is cell-based. The following applies: Homo sapiens, FIG. 4, read-out: GI50 against RWPE-1. The text has this:
FIG. 4. Bioassay of compound I-1, compound I-2, and compound I-3. SPA14-3-2 is pure compound I-2. SPA14-3-3 is pure compound I-3. SPA14-3-4 is pure compound I-1. MTT assays using compound I-1, compound I-2, and compound I-3 against DU145 and RWPE-1 cells lines.
Isolation, NMR, and X-ray crystallographic analyses. Leaves, stems, and few fruits of Physalis angulate L (Solanaceae) were collected in Rio Domingusa. Kuith/Barranquita, Amazonas Department, Northeastern Peru, and identified by the team led by Walter Lewis (collection voucher 18597, Ext. 1159). Dried and grounded material (46 g) was extracted with ethanol (1 L, 95%) for 7 days. The evaporated crude extract (6.26 g) was denoted SPA. An aliquot (1.5 g) of SPA was partitioned between dichloromethane (40 mL) and water (40 mL), affording two fractions: organic (SPA1, 500 mg) and aqueous (SPA2, 600 mg). All MTT assays were performed as described in Bates et al. “G-Rich Oligonucleotides for Cancer Treatment” Chapter 21 of Methods in Molecular Biology, Gene Therapy of Cancer, Wolfgang Walther and Ulrike S. Stein (eds.), Vol. 542, 2009, Humana Press. […] SPA14-3 (30 mg) was treated on an HPLC using a reverse phase C18 column eluted in gradient mode of methanol and water (from 80% methanol to 100% methanol) and detected at 254 nm, yielding SPA14-3-1 (0 mg), SPA14-3-2 (1.2 mg of pure compound I-2), SPA14-3-3 (4.1 mg of pure compound I-3), and SPA14-3-4 (18 mg of pure compound I-1).
General Experimental Procedure. Compound I-1 was isolated as described in Example Set 1, above. For samples of compound I-1 used in Example Set 2, HPLC and NMR indicated a purity of at least 95%. All experiments described in Example Set 2 were repeated at least two or three times. All MTT assays were performed according to Bates et al. “G-Rich Oligonucleotides for Cancer Treatment” Chapter 21 of Methods in Molecular Biology, Gene Therapy of Cancer, Wolfgang Walther and Ulrike S. Stein (eds.), Vol. 542, 2009, Humana Press.

The values below come from patent US9492428B2, “Compounds, compositions, pharmaceutical compositions, and methods of use” (University of Louisville Research Foundation, Inc., priority 2011, dated 2016).

≈ marks a conversion by molar mass, not a printed value.

What is called GI50 is the concentration giving 50% growth inhibition.

Turning to `C[C@@H]1CC[C@H]2C3C(O[C@]4([C@]5(O)CC6(C)C(=O)OC5C[C@@]6(C)O)CC[C@@]31O4)[C@H]1O[C@]13CC=CC(=O)[C@]23C` (stereo partly drawn) [I-1], in the experiment with PC3 cells, the “activation of caspase-3” value is “able to induce” and the “cleavage of PARP-1” value was “able to induce”. For the same compound, the GI50 with RWPE-1 cells is approximately 1.2 µg/mL (≈ 2.4 µM).
